Values quoted from earlier work in patent US20160082159A1, “BALLOON SURFACE COATING” (priority 2013, published 2016).

Conditions: in humans

normal plasma half-life of paclitaxel: approximately 60 min
SMILES: CC(=O)O[C@H]1C(=O)[C@@]2(C)[C@H]([C@H](OC(=O)c3ccccc3)[C@]3(O)C[C@H](OC(=O)[C@H](O)[C@@H](NC(=O)c4ccccc4)c4ccccc4)C(C)=C1C3(C)C)[C@]1(OC(C)=O)CO[C@@H]1C[C@@H]2O [paclitaxel]
